Data on nine molecules can be found in patent publication US20230405028A1 (priority 2020, published 2023).

Data set [1] deals with iNOS. Nature of the data set: iNOS in HSIEC cells treated with TNF-α/IFN-γ. Type of data set: cell-based, human. The following applies: 5, 10, 20, 40 μM.
Data set [2] concerns COX-2. The experiment in a line: COX-2 in HSIEC cells treated with TNF-α/IFN-γ (western blot, densitometry). The following applies: single agent, escalating doses. In kind it is cell-based, human. How it is done:
Cell Culture: Human primary small intestinal epithelial cells (HSIEC), purchased from Cell Biologics were cultured in Epithelial Cell Medium/w Kit. HSIEC cells were incubated at 37° C. in a humidified atmosphere of 5% CO2. HSIEC cells were treated with mycoplasma removal reagent BM-Cyclin (Roche) to ensure mycoplasma negative before treatment.
To do so, COX-2, an enzyme which mediates the bioconversion of arachidonic acid to inflammatory prostaglandins (PGs), was measured via densitometry. GAPDH was used as a reference housekeeping marker for relative densitometry measures. […] Ethanol or DMSO was used, as indicated in the figures, as a vehicle for dilution and as a negative control showing the amount of the inflammatory marker present when inflammation was not induced.
Increasing doses of each molecule of interest, or each combination of molecules of interest, were then distributed to the HSIEC cells treated to induce inflammatory response. Inflammatory markers COX-2 and/or IL-6 were assessed at specific timepoints after induction of inflammation for protein content marker measured via western blot. GAPDH was used as a reference housekeeping marker for relative densitometry measures of protein content.
(In general: In western blotting, separated proteins are transferred to a membrane and probed.)

In data set [3] the test system is Human primary small intestinal epithelial cells (HSIEC).
In data set [4] the target is 5HT2A (Homo sapiens, UniProt P28223). The following applies: printed with a question mark in the Average Dose column; cited from earlier work.
Sequence of 5HT2A (P28223 whole entry): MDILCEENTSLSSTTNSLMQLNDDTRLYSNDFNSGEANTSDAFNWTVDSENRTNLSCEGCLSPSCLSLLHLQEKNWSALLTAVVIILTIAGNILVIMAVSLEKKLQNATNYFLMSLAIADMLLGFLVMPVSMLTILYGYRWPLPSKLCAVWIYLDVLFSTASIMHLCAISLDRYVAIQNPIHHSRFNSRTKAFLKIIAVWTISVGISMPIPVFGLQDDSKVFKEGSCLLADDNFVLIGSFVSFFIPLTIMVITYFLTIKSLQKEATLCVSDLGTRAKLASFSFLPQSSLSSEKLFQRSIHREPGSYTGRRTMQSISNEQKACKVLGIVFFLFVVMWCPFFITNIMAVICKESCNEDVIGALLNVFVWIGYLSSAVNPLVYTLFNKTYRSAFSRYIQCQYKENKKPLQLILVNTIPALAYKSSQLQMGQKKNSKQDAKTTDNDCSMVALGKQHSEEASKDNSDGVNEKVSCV
Data set [5] deals with A-172 glioblastoma cells. The experiment in a line: MTT cell viability assay in A-172 cells. The following applies: Psilocybin + Eugenol section, 25 μM EUG. In general terms: Tetrazolium assays rely on reduction of a dye to a coloured formazan, in cell work by metabolically active cells.
For data set [6], the system named is TRPA1. The following applies: TRPA1 overexpressing CHO cells and trigeminal neurons; cited from earlier work.

Where two headings read alike, the source gives them in different places.

Consider `CC(=O)Oc1cccc2[nH]cc(CCN(C)C)c12` [4-ACO-DMT, 3-[2-(dimethylamino)ethyl]-4-acetoxyindole], for which, in data set [1], the “dose reducing iNOS to the greatest extent” value amounted to 10 µM and the “doses resulting in reduction of iNOS” value was “all doses”. Also, the “doses reducing COX-2 to the greatest extent” value in data set [2] came out at 40 µM. Besides, the “effect on cell growth / cellular metabolic activity (MTT, words)” value in data set [3] was “increase growth of cells”.

On to `CCN(C(=O)[C@@H]1C=C2c3cccc4[nH]cc(c34)C[C@H]2N(C)C1)C1CC1` [ECPLA, D-N-ethyl-N-cyclopropyllysergamide], for which the “potency of LSD” value in data set [4] is listed as 40% potency % potency of LSD.

As to `C=CCc1ccc(O)c(OC)c1` [EUG], the “Cellular Metabolic Activity” value is listed as 0.202 in data set [5] (24 h); 0.297 in data set [5] (48 h); 0.473 in data set [5] (72 h); 0.319 in data set [5] (96 h); 0.134 in data set [5] (time 0).

With `CCC(CC)NC(=O)[C@@H]1C=C2c3cccc4[nH]cc(c34)C[C@H]2N(C)C1` [LSP, D-lysergic acid 3-pentyl amide], the “potency of LSD” value in data set [4] is 75% potency % potency of LSD.

`CCCCCc1cc(O)c2c(c1)OC(C)(C)[C@@H]1CCC(C)=C[C@@H]21` [THC, delta-9-tetrahydrocannabinol]: the TRPA1 activation entry in data set [6] was “activate TRPA1”.

For the molecule `CCCCCc1cc(O)c2c(c1)OC(C)(C)c1ccc(C)cc1-2` [cannabinol], in data set [6], the TRPA1 activation result was “activate TRPA1”.

For the molecule `COc1cc(CNC(=O)CCCC/C=C/C(C)C)ccc1O` [capsaicin], the “effect on cell growth / cellular metabolic activity (MTT, words)” value in data set [3] is recorded as “All initial doses of capsaicin were found to be inhibitory”. Further, the “Cellular Metabolic Activity” value came out at 0.088 in data set [3] (0.5 μM, 24 h); 0.154 in data set [3] (0.5 μM, 48 h); 0.288 in data set [3] (0.5 μM, 72 h); 0.469 in data set [3] (0.5 μM, 96 h); 0.068 in data set [3] (0.5 μM, time 0); 0.084 in data set [3] (1 μM, 24 h). For the same molecule, the “Cellular Metabolic Activity” value in data set [3] (1 μM, 48 h) came out at 0.150; in data set [3] (1 μM, 72 h) it was 0.326; in data set [3] (1 μM, 96 h) it was 0.502; in data set [3] (1 μM, time 0) it was 0.066; in data set [3] (5 μM, 24 h), 0.080; in data set [3] (5 μM, 48 h), 0.148. Further, the “Cellular Metabolic Activity” value was 0.296 in data set [3] (5 μM, 72 h); 0.477 in data set [3] (5 μM, 96 h); 0.068 in data set [3] (5 μM, time 0); 0.075 in data set [3] (10 μM, 24 h); 0.174 in data set [3] (10 μM, 48 h); 0.331 in data set [3] (10 μM, 72 h). For the same molecule, the “Cellular Metabolic Activity” value was 0.708 in data set [3] (10 μM, 96 h); 0.040 in data set [3] (10 μM, time 0); 0.062 in data set [3] (50 μM, 24 h); 0.155 in data set [3] (50 μM, 48 h); 0.292 in data set [3] (50 μM, 72 h); 0.681 in data set [3] (50 μM, 96 h). Besides, the “Cellular Metabolic Activity” value was 0.036 in data set [3] (50 μM, time 0); 0.063 in data set [3] (100 μM, 24 h); 0.150 in data set [3] (100 μM, 48 h); 0.272 in data set [3] (100 μM, 72 h); 0.623 in data set [3] (100 μM, 96 h); 0.036 in data set [3] (100 μM, time 0). The “Cellular Metabolic Activity” value stood at 0.044 in data set [3] (200 μM, 24 h); 0.082 in data set [3] (200 μM, 48 h); 0.144 in data set [3] (200 μM, 72 h); 0.231 in data set [3] (200 μM, 96 h); 0.040 in data set [3] (200 μM, time 0); 0.016 in data set [3] (400 μM, 24 h). The “Cellular Metabolic Activity” value was 0.031 in data set [3] (400 μM, 48 h); 0.016 in data set [3] (400 μM, 72 h); 0.018 in data set [3] (400 μM, 96 h); 0.039 in data set [3] (400 μM, time 0); 0 in data set [3] (800 μM, 24 h); 0 in data set [3] (800 μM, 48 h). Further, the “Cellular Metabolic Activity” value was found to be 0 in data set [3] (800 μM, 72 h); 0 in data set [3] (800 μM, 96 h); 0.041 in data set [3] (800 μM, time 0). Also, the “doses showing no effect (MTT)” value in data set [3] (human) was less than 10 µM.

Turning to `O=C(c1ccc(F)cc1)C1CCN(CCn2c(=O)[nH]c3ccccc3c2=O)CC1` [ketanserin, reference compound], the “doses resulting in reduction of COX-2” value in data set [2] is on record as “none of the doses”. In addition, in data set [3] (human), the “concentration above which inhibitory effect / significant toxicity (MTT)” value is “above 20 μM”.

In the case of `O=C(/C=C/C=C/c1ccc2c(c1)OCO2)N1CCCCC1` [piperine], the “doses reducing COX-2 to the greatest extent” value in data set [2] came to 2.5 µM. Further, in data set [3], the “effect on cell growth / cellular metabolic activity (MTT, words)” value was “could only be studied at very low dose”. In addition, the “Cellular Metabolic Activity” value in data set [3] (5 μM, 24 h) is 0.077; in data set [3] (5 μM, 48 h), 0.170; in data set [3] (5 μM, 72 h), 0.278; in data set [3] (5 μM, 96 h) it was 0.517; in data set [3] (5 μM, time 0) it was 0.035; in data set [3] (10 μM, 24 h), 0.073. Moreover, the “Cellular Metabolic Activity” value in data set [3] (10 μM, 48 h) was 0.183; in data set [3] (10 μM, 72 h), 0.271; in data set [3] (10 μM, 96 h), 0.438; in data set [3] (10 μM, time 0), 0.026; in data set [3] (20 μM, 24 h), 0.075; in data set [3] (20 μM, 48 h) it was 0.166. Also, the “Cellular Metabolic Activity” value in data set [3] (20 μM, 72 h) is 0.268; in data set [3] (20 μM, 96 h), 0.445; in data set [3] (20 μM, time 0) it was 0.022; in data set [3] (40 μM, 24 h), 0.069; in data set [3] (40 μM, 48 h), 0.169; in data set [3] (40 μM, 72 h), 0.226. Further, the “Cellular Metabolic Activity” value in data set [3] (40 μM, 96 h) stood at 0.423; in data set [3] (40 μM, time 0), 0.025; in data set [3] (80 μM, 24 h), 0.068; in data set [3] (80 μM, 48 h), 0.171; in data set [3] (80 μM, 72 h), 0.224; in data set [3] (80 μM, 96 h), 0.391. The “Cellular Metabolic Activity” value came to 0.026 in data set [3] (80 μM, time 0); 0.071 in data set [3] (100 μM, 24 h); 0.175 in data set [3] (100 μM, 48 h); 0.248 in data set [3] (100 μM, 72 h); 0.410 in data set [3] (100 μM, 96 h); 0.030 in data set [3] (100 μM, time 0). In addition, the “Cellular Metabolic Activity” value in data set [3] (200 μM, 24 h) was 0.071; in data set [3] (200 μM, 48 h), 0.171; in data set [3] (200 μM, 72 h), 0.243; in data set [3] (200 μM, 96 h), 0.426; in data set [3] (200 μM, time 0) it was 0.027; in data set [3] (400 μM, 24 h), 0.068. Moreover, the “Cellular Metabolic Activity” value in data set [3] (400 μM, 48 h) is on record as 0.191; in data set [3] (400 μM, 72 h), 0.187; in data set [3] (400 μM, 96 h) it was 0.255; in data set [3] (400 μM, time 0), 0.031.
